# Source: US10993436B2 (priority 2016, dated 2021)
# Read-outs that look alike come from different tables or passages of the source.
# System: Fusarium graminearum
# Assay type: cell-based
# Settings: enzyme disk 119 nM where (+) enzyme, 5 days
substance,measurement,setting,value
mancozeb,Reduction in F. graminearum growth relative to non-treated controls,Mancozeb 0.5 mg/l,6% cd
same,Reduction in F. graminearum growth relative to non-treated controls,Mancozeb 2 mg/l,1% d
same,Reduction in F. graminearum growth relative to non-treated controls,Mancozeb 5 mg/l,17% cd
same,Reduction in F. graminearum growth relative to non-treated controls,Mancozeb 10 mg/l,26% bcd
